According to ChEMBL document CHEMBL5584217, “Synthesis, biological activity evaluation and mechanism of action of novel bis-isatin derivatives as potential anti-liver cancer agents” (Bioorg Med Chem Lett, 2024):
Calls of active or inactive are those of the source. The rule behind the calls is not given here.

Columns and labels:
[1] = test system: Huh-7; assay: Antiproliferative activity against human Huh-7 cells assessed as inhibition of cell growth incubated for 48 hrs by CCK-8 method; assay type: functional, cell-based; details: Huh-7, 48 h
[2] = test system: MHCC97H; assay: Antiproliferative activity against human MHCC97H cells assessed as inhibition of cell growth incubated for 48 hrs by CCK-8 method; assay type: functional, cell-based
[3] = test system: HepG2; assay: Antiproliferative activity against human HepG2 cells assessed as inhibition of cell growth incubated for 48 hrs by CCK-8 method; assay type: functional, cell-based; details: HepG2, 48 h
[4] = test system: HuH-1; assay: Antiproliferative activity against human HuH-1 cells assessed as inhibition of cell growth incubated for 48 hrs by CCK-8 method; assay type: functional, cell-based; details: HuH-1, 48 h
[5] = test system: H22; assay: Antiproliferative activity against mouse H22 cells assessed as inhibition of cell growth incubated for 48 hrs by CCK-8 method; assay type: functional, cell-based; details: H22, 48 h
[6] = test system: Hepa 1-6; assay: Antiproliferative activity against mouse Hepa1-6 cells assessed as inhibition of cell growth incubated for 48 hrs by CCK-8 method; assay type: functional, cell-based; details: Hepa1-6, 48 h
[7] = test system: HuH-6; assay: Antiproliferative activity against human HuH-6 cells assessed as inhibition of cell growth incubated for 48 hrs by CCK-8 method; assay type: functional, cell-based; details: HuH-6, 48 h
[8] = Antiproliferative activity against mouse AML12 cells assessed as inhibition of cell growth incubated for 48 hrs by CCK-8 method; assay type: toxicity, cell-based
[9] = Toxicity in NCG mouse assessed as effect on MCH level at 15 mg/kg, ip measured after 14 days; assay type: organism-based; details: in vivo, 336 h, time 14 day
[10] = Toxicity in NCG mouse assessed as pathological change in heart at 15 mg/kg, ip measured after 14 days by H and E staining based analysis; assay type: organism-based; details: in vivo, 336 h, time 14 day
[11] = Toxicity in NCG mouse assessed as effect on MCV level at 15 mg/kg, ip measured after 14 days; assay type: organism-based; details: in vivo, 336 h, time 14 day
[12] = test system: HuH-1; assay: Antitumor activity against human HuH-1 cells xenografted in NCG mouse model assessed as reduction in tumor size at 15 mg/kg, ip administered every other day for 14 days; assay type: functional, organism-based; details: time 14.0 day
[13] = Toxicity in NCG mouse assessed as effect on RBC level at 15 mg/kg, ip measured after 14 days; assay type: organism-based, Erythrocyte; details: in vivo, 336 h, time 14 day
[14] = test system: HuH-1; assay: Antitumor activity against human HuH-1 cells xenografted in NCG mouse model assessed as reduction in tumor weight at 15 mg/kg, ip administered every other day for 14 days; assay type: functional, organism-based; details: time 14.0 day
[15] = Toxicity in NCG mouse assessed as pathological change in spleen at 15 mg/kg, ip measured after 14 days by H and E staining based analysis; assay type: organism-based; details: in vivo, 336 h, time 14 day
[16] = Toxicity in NCG mouse assessed as pathological change in liver at 15 mg/kg, ip measured after 14 days by H and E staining based analysis; assay type: organism-based; details: in vivo, 336 h, time 14 day
[17] = Toxicity in NCG mouse assessed as effect on ALB level at 15 mg/kg, ip measured after 14 days; assay type: organism-based; details: in vivo, 336 h, time 14 day
[18] = Toxicity in NCG mouse assessed as pathological change in kidney at 15 mg/kg, ip measured after 14 days by H and E staining based analysis; assay type: organism-based; details: in vivo, 336 h, time 14 day
[19] = Toxicity in NCG mouse assessed as effect on ALT level at 15 mg/kg, ip measured after 14 days; assay type: organism-based; details: in vivo, 336 h, time 14 day
[20] = Toxicity in NCG mouse assessed as effect on UREA level at 15 mg/kg, ip measured after 14 days; assay type: organism-based; details: in vivo, 336 h, time 14 day
[21] = Toxicity in NCG mouse assessed as effect on HGB level at 15 mg/kg, ip measured after 14 days; assay type: organism-based; details: in vivo, 336 h, time 14 day
[22] = Toxicity in NCG mouse assessed as effect on HCT level at 15 mg/kg, ip measured after 14 days; assay type: organism-based; details: in vivo, 336 h, time 14 day
[23] = test system: HuH-1; assay: Antitumor activity against human HuH-1 cells xenografted in NCG mouse model assessed as reduction in tumor cell density at 15 mg/kg, ip administered every other day for 14 days; assay type: functional, organism-based; details: time 14.0 day
[24] = Toxicity in NCG mouse assessed as pathological change in tumor at 15 mg/kg, ip measured after 14 days by H and E staining based analysis; assay type: organism-based; details: in vivo, 336 h, time 14 day
[25] = Toxicity in NCG mouse assessed as effect on LDH level at 15 mg/kg, ip measured after 14 days; assay type: organism-based; details: in vivo, 336 h, time 14 day
[26] = Toxicity in NCG mouse assessed as pathological change in lung at 15 mg/kg, ip measured after 14 days by H and E staining based analysis; assay type: organism-based; details: in vivo, 336 h, time 14 day
[27] = test system: HuH-1; assay: Antitumor activity against human HuH-1 cells xenografted in NCG mouse model assessed as increase in tumor cell death at 15 mg/kg, ip administered every other day for 14 days; assay type: functional, organism-based; details: time 14.0 day
[28] = Toxicity in NCG mouse assessed as effect on AST level at 15 mg/kg, ip measured after 14 days; assay type: organism-based; details: in vivo, 336 h, time 14 day
[29] = test system: HuH-1; assay: Induction of autophagy in human HuH-1 cells assessed as downregulation of P62 expression by […] based analysis; assay type: functional, cell-based
[30] = test system: HuH-1; assay: Induction of autophagy in human HuH-1 cells assessed as increase in LC3BI expression by […] based analysis; assay type: functional, cell-based
[31] = test system: HuH-1; assay: Induction of autophagy in human HuH-1 cells assessed as increase in ATG5 expression by […] based analysis; assay type: functional, cell-based
[32] = test system: HuH-1; assay: Induction of autophagy in human HuH-1 cells assessed as increase in LC3BII expression by […] based analysis; assay type: functional, cell-based
[33] = test system: HuH-1; assay: Antitumor activity against human HuH-1 cells xenografted in NCG mouse model assessed as increase in tumor cell death at 20 mg/kg, ip administered every other day for 14 days; assay type: functional, organism-based; details: time 14.0 day
[34] = test system: HuH-1; assay: Antitumor activity against human HuH-1 cells xenografted in NCG mouse model assessed as reduction in tumor cell density at 20 mg/kg, ip administered every other day for 14 days; assay type: functional, organism-based; details: time 14.0 day

Row | Compound | IC50 [1] [µM] | IC50 [2] [µM] | IC50 [3] [µM] | IC50 [4] [µM] | IC50 [5] [µM] | IC50 [6] [µM] | IC50 [7] [µM] | IC50 at 48 h [8] [µM] | other results
1 | COC(=O)[C@H](CCCCNC(=O)CN1C(=O)C(=O)c2cc(OC)ccc21)NC(=O)CN1C(=O)C(=O)c2cc(OC)ccc21 | > 100 | > 100 | > 100 | > 100 | > 100 | > 100 | > 100 | > 100 | 
2 | COC(=O)[C@H](CCCCNC(=O)CN1C(=O)C(=O)c2ccccc21)NC(=O)CN1C(=O)C(=O)c2ccccc21 | > 100 | > 100 | > 100 | > 100 | > 100 | > 100 | > 100 | > 100 | 
3 | COC(=O)[C@H](CCCCNC(=O)CN1C(=O)C(=O)c2cc(Br)ccc21)NC(=O)CN1C(=O)C(=O)c2cc(Br)ccc21 | 8.27 | > 100 | > 100 | 17.1 | 16.9 | > 100 | > 100 | > 100 | Activity [9]: Non-Toxic; Activity [10]: Non-Toxic; Activity [11]: Non-Toxic; Activity [12]: Active; Activity [13]: Non-Toxic; Activity [14]: Active; Activity [15]: Non-Toxic; Activity [16]: Non-Toxic; Activity [17]: Non-Toxic; Activity [18]: Non-Toxic; Activity [19]: Non-Toxic; Activity [20]: Non-Toxic; Activity [21]: Non-Toxic; Activity [22]: Non-Toxic; Activity [23]: Active; Activity [24]: Non-Toxic; Activity [25]: Non-Toxic; Activity [26]: Non-Toxic; Activity [27]: Active; Activity [28]: Non-Toxic
4 | COC(=O)[C@H](CCCCNC(=O)CN1C(=O)C(=O)c2cc(Cl)ccc21)NC(=O)CN1C(=O)C(=O)c2cc(Cl)ccc21 | 29.9 | > 100 | > 100 | 26.4 | 45.8 | > 100 | > 100 | > 100 | 
5 | COC(=O)[C@H](CCCCNC(=O)CN1C(=O)C(=O)c2cc(F)ccc21)NC(=O)CN1C(=O)C(=O)c2cc(F)ccc21 | > 100 | > 100 | > 100 | > 100 | > 100 | > 100 | > 100 | > 100 | Activity [29]: Active; Activity [30]: Active; Activity [31]: Active; Activity [32]: Active
6 | CNC(=O)c1cc(Oc2ccc(NC(=O)Nc3ccc(Cl)c(C(F)(F)F)c3)cc2)ccn1 [SORAFENIB] | 14.7 |  |  | 9.63 | 10.7 |  |  |  | Activity [33]: Active; Activity [34]: Active
7 | COC(=O)[C@H](CCCCNC(=O)CN1C(=O)C(=O)c2cc(C)ccc21)NC(=O)CN1C(=O)C(=O)c2cc(C)ccc21 | 32.9 | > 100 | > 100 | 35.1 | > 100 | > 100 | > 100 | > 100 | 
